# Results as given in patent publication US20240150365A1 (Hotspot Therapeutics, Inc., priority 2022, published 2024).
# Like-named read-outs stand apart in the source and are kept apart here.
# What was measured:
# MALT1 = molecular target: T1, MALT1 (Homo sapiens, UniProt Q9UDY8); assay: MALT-1 Fluorogenic Peptide Cleavage Assay (MALT1 inhibition assay); type: biochemical; conditions: Avi-tagged FL MALT-1, Ac-LRSR-AMC peptide substrate, 30 min pre-incubation, 90 min reaction
# T1 construct: Avi-tagged FL MALT-1 (Pharmaron, stored at −70° C.); Avi tag
# T1 sequence (Q9UDY8 1-824): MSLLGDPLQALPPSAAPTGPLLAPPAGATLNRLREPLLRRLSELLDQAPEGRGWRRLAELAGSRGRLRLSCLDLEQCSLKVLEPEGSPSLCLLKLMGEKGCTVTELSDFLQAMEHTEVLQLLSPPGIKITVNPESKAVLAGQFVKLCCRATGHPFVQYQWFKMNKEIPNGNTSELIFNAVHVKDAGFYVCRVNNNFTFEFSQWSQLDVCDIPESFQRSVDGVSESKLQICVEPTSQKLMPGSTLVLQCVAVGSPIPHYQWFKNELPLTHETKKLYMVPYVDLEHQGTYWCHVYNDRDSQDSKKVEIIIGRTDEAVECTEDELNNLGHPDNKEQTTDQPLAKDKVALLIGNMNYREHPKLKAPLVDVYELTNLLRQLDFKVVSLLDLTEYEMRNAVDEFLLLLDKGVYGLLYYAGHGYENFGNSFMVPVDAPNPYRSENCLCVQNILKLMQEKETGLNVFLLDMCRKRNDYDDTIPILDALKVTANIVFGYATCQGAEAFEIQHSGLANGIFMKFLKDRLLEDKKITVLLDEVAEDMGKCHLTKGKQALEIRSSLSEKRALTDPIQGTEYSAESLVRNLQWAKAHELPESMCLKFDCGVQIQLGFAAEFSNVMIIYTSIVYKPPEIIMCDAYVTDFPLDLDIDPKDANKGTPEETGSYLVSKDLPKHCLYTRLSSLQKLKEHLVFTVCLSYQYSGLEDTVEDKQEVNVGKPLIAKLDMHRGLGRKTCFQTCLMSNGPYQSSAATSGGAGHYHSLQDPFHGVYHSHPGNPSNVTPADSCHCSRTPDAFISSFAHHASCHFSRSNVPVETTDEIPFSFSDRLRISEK
# Outline: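 IC50 from sigmoidal fits of % inhibition, with fluorescence (ex 342, em 441 nm) from AMC released from the quenched LRSR peptide after 90 min at room temperature. Full-length Avi-tagged MALT1 saw compound for 30 min first; final DMSO 2%.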
# NF-kB = NF-kB reporter assay in Jurkat cells stimulated with aCD3/aCD28/PMA; type: cell-based; conditions: Homo sapiens, Jurkat, read-out: NF-kB Reporter Assay IC50
# Outline: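 Stimulation used final aCD3 5 μg/mL, aCD28 5 μg/mL and PMA 0.03 μg/mL for 4 hr at 37° C, after 1 hr compound pretreatment of 25,000 serum-starved Jurkat cells per well. One-Glo luminescence gave IC50 values.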
# [1] = Jurkat cells, 1 hr compound incubation, aCD3/aCD28/PMA stimulation 4 hr, One-Glo readout
IC50 (MALT1) [nM],IC50 (NF-kB; [1]) [nM],SMILES,IC50 (NF-kB) [nM]
< 400,< 400,"[2H]C([2H])([2H])c1ccc2cnn(C)c2c1NS(=O)(=O)c1ccc(-n2cc(C(F)(F)F)cn2)nc1 [Example I-69, N-(1-Methyl-6-(Methyl-Ds)-1H-Indazol-7-yl)-6-(4-(Trifluoromethyl)-1H-Pyrazol-1-yl)Pyridine-3-Sulfonamide]",
< 400,< 400,"[2H]C([2H])(C)c1ccc2cnn(C)c2c1NS(=O)(=O)c1ccc(-n2cc(C(F)(F)F)cn2)nc1 [Example I-70, N-(6-(Ethyl-1,1-D2)-1-Methyl-1H-Indazol-7-yl)-6-(4-(Trifluoromethyl)-1H-Pyrazol-1-yl)Pyridine-3-Sulfonamide]",
1000 to 2500,< 400,"Cc1cc(NS(=O)(=O)c2ccc(-n3cc(C(F)(F)F)cn3)nc2)c2c(cnn2C)c1 [Example I-71, N-(1,5-Dimethyl-1H-Indazol-7-yl)-6-(4-(Trifluoromethyl)-1H-Pyrazol-1-yl) Pyridine-3-Sulfonamide]",
1000 to 2500,< 400,"COc1cc(NS(=O)(=O)c2ccc(-n3cc(C(F)(F)F)cn3)nc2)c2c(cnn2C)c1 [Example I-72, N-(5-Methoxy-1-Methylindazol-7-yl)-6-[4-(Trifluoromethyl)Pyrazol-1-Yl]Pyridine-3-Sulfonamide]",
400 to 1000,400 to 1000,"Cn1ncc2cc(F)cc(NS(=O)(=O)c3ccc(-n4cc(C(F)(F)F)cn4)nc3)c21 [Example I-73, N-(5-Fluoro-1-Methylindazol-7-yl)-6-[4-(Trifluoromethyl)Pyrazol-1-Yl]Pyridine-3-Sulfonamide]",
< 400,< 400,"[2H]C([2H])([2H])n1ncc2ccc(OC)c(NS(=O)(=O)c3ccc(-n4cc(C(F)(F)F)cn4)nc3)c21 [Example I-75, N-(6-Methoxy-1-(Methyl-D3)-1H-Indazol-7-yl)-6-(4-(Trifluoromethyl)-1H-Pyrazol-1-yl)Pyridine-3-Sulfonamide]",
> 2500,< 400,"Cn1ncc2cccc(NS(=O)(=O)c3ccc(-c4cc5ccccc5[nH]4)nc3)c21 [Example I-76, 6-(1H-Indol-2-yl)-N-(1-Methyl-1H-Indazol-7-yl)Pyridine-3-Sulfonamide]",
> 2500,> 2500,"Cn1ncc2cccc(NS(=O)(=O)c3ccc(-c4cc5cnccc5[nH]4)nc3)c21 [Example I-77, N-(1-Methyl-1H-Indazol-7-yl)-6-(1H-Pyrrolo[3,2-C]Pyridin-2-yl)Pyridine-3-Sulfonamide]",
> 2500,1000 to 2500,"Cn1ncc2cccc(NS(=O)(=O)c3ccc(-c4cc[nH]c4)nc3)c21 [Example I-79, N-(1-Methyl-1H-Indazol-7-yl)-6-(1H-Pyrrol-3-yl)Pyridine-3-Sulfonamide]",
> 2500,1000 to 2500,"Cn1ncc2cccc(NS(=O)(=O)c3ccc(-c4ccc[nH]4)nc3)c21 [Example I-80, N-(1-Methyl-1H-Indazol-7-yl)-6-(1H-Pyrrol-2-yl)Pyridine-3-Sulfonamide]",
> 2500,400 to 1000,"Cn1ncc2cccc(NS(=O)(=O)c3ccc(-c4ccn[nH]4)nc3)c21 [Example I-81, N-(1-Methyl-1H-Indazol-7-yl)-6-(1H-Pyrazol-5-yl)Pyridine-3-Sulfonamide]",
> 2500,400 to 1000,"Cn1nccc1-c1ccc(S(=O)(=O)Nc2cccc3cnn(C)c23)cn1 [Example I-82, N-(1-Methyl-1H-Indazol-7-yl)-6-(1-Methyl-1H-Pyrazol-5-yl)Pyridine-3-Sulfonamide]",
> 2500,< 400,"Cc1cc(-c2ccc(S(=O)(=O)Nc3cccc4cnn(C)c34)cn2)[nH]n1 [Example I-83, N-(1-Methyl-1H-Indazol-7-yl)-6-(3-Methyl-1H-Pyrazol-5-yl)Pyridine-3-Sulfonamide]",
400 to 1000,< 400,"Cn1ncc2cccc(NS(=O)(=O)c3ccc(-c4cc(C(F)(F)F)n[nH]4)nc3)c21 [Example I-84, N-(1-Methyl-1H-Indazol-7-yl)-6-(3-(Trifluoromethyl)-1H-Pyrazol-5-yl)Pyridine-3-Sulfonamide]",
> 2500,< 400,"Cn1ncc2cccc(NS(=O)(=O)c3ccc(-c4c[nH]nc4C(F)(F)F)nc3)c21 [Example I-85, N-(1-Methyl-1H-Indazol-7-yl)-6-(3-(Trifluoromethyl)-1H-Pyrazol-4-yl)Pyridine-3-Sulfonamide]",
> 2500,< 400,"Cn1ncc2cccc(NS(=O)(=O)c3ccc(-c4cnn(C(F)F)c4)nc3)c21 [Example I-86, 6-(1-(Difluoromethyl)-1H-Pyrazol-4-yl)-N-(1-Methyl-1H-Indazol-7-yl)Pyridine-3-Sulfonamide]",
> 2500,< 400,"Cc1nn(C)cc1-c1ccc(S(=O)(=O)Nc2cccc3cnn(C)c23)cn1 [Example I-87, 6-(1,3-Dimethyl-1H-Pyrazol-4-yl)-N-(1-Methyl-1H-Indazol-7-yl)Pyridine-3-Sulfonamide]",
> 2500,< 400,"Cc1c(-c2ccc(S(=O)(=O)Nc3cccc4cnn(C)c34)cn2)cnn1C [Example I-88, 6-(1,5-Dimethyl-1H-Pyrazol-4-yl)-N-(1-Methyl-1H-Indazol-7-yl)Pyridine-3-Sulfonamide]",
> 2500,< 400,"Cc1nn(C)c(C)c1-c1ccc(S(=O)(=O)Nc2cccc3cnn(C)c23)cn1 [Example I-89, N-(1-Methyl-1H-Indazol-7-yl)-6-(1,3,5-Trimethyl-1H-Pyrazol-4-yl)Pyridine-3-Sulfonamide]",
> 2500,400 to 1000,"Cn1cncc1-c1ccc(S(=O)(=O)Nc2cccc3cnn(C)c23)cn1 [Example I-90, 6-(1-Methyl-1H-Imidazol-5-yl)-N-(1-Methyl-1H-Indazol-7-yl)Pyridine-3-Sulfonamide]",
> 2500,< 400,"Cc1cc(-c2ccc(S(=O)(=O)Nc3cccc4cnn(C)c34)cn2)on1 [Example I-98, N-(1-Methyl-1H-Indazol-7-yl)-6-(3-Methylisoxazol-5-yl)Pyridine-3-Sulfonamide]",
< 400,< 400,"Cn1ncc2cccc(NS(=O)(=O)c3ccc(-c4cncs4)nc3)c21 [Example I-101, N-(1-Methyl-1H-Indazol-7-yl)-6-(Thiazol-5-yl)Pyridine-3-Sulfonamide]",
400 to 1000,< 400,"Cc1nc(C)c(-c2ccc(S(=O)(=O)Nc3cccc4cnn(C)c34)cn2)s1 [Example I-103, 6-(2,4-Dimethylthiazol-5-yl)-N-(1-Methyl-1H-Indazol-7-yl)Pyridine-3-Sulfonamide]",
< 400,< 400,"COc1ccc2cnn(C)c2c1N(C)S(=O)(=O)c1ccc(-c2cc(C(F)(F)F)nn2C)nc1 [Example I-104, N-(6-Methoxy-1-Methyl-1H-Indazol-7-yl)-N-Methyl-6-(1-Methyl-3-(Trifluoromethyl)-1H-Pyrazol-5-yl)Pyridine-3-Sulfonamide]",
> 2500,> 2500,"Cn1ncc2cccc(NS(=O)(=O)c3ccc(-n4cc(C(N)=O)cn4)nc3)c21 [Example I-105, 1-(5-(N-(1-Methyl-1H-Indazol-7-yl)Sulfamoyl)Pyridin-2-yl)-1H-Pyrazole-4-Carboxamide]",
< 400,< 400,"COc1ccc2[nH]nc(C)c2c1NS(=O)(=O)c1ccc(-n2cc(C(F)(F)F)cn2)nc1 [Example I-106, N-(5-Methoxy-3-Methyl-1H-Indazol-4-yl)-6-(4-(Trifluoromethyl)-1H-Pyrazol-1-yl)Pyridine-3-Sulfonamide]",
> 2500,< 400,"Cn1cc(-c2ccc(S(=O)(=O)Nc3cccc4cnn(C)c34)cn2)cn1 [Example I-107, N-(1-Methyl-1H-Indazol-7-yl)-6-(1-Methyl-1H-Pyrazol-4-yl)Pyridine-3-Sulfonamide]",
> 2500,< 400,"COc1cc(-c2ccc(S(=O)(=O)Nc3cccc4cnn(C)c34)cn2)ccn1 [Example I-108, 2′-Methoxy-N-(1-Methyl-1H-Indazol-7-yl)-[2,4′-Bipyridine]-5-Sulfonamide]",

SMILES,IC50 (MALT1) [nM],IC50 (NF-kB; [1]) [nM],IC50 (NF-kB) [nM]
"COc1ncc2cnn(C)c2c1NS(=O)(=O)c1ccc(-n2cc(C(F)(F)F)cn2)nc1 [Example I-74, N-(6-methoxy-1-methyl-1H-pyrazolo[4,3-c]pyridin-7-yl)-6-(4-(trifluoromethyl)-1H-pyrazol-1-yl)pyridine-3-sulfonamide]",< 400,,< 400
